In experiment [1] the test system is small intestinal circular muscle. The experiment is described as follows: in vitro circular muscle contractility (spontaneous and bethanechol-stimulated) after IM. It counts as in vivo, mouse. The source says:
Surgical Manipulation. Mice were anesthetized with inhaled isoflurane and the abdomen opened by midline laparotomy. The small intestine was eventrated and gently compressed along its entire length using moistened sterile cotton applicators. This procedure is designed to simulate “running” of the bowel commonly performed during abdominal surgery in the clinical setting. The bowel was repositioned in the abdominal cavity and the incision closed by two layers of continuous sutures. The duration of the procedure was approximately 15 minutes and the animals moved freely about their cage within 20 minutes of withdrawal of anesthetic.
CO Inhalation Treatment. Mice housed in cages were placed in plexiglass chambers that were continuously ventilated with air or with air containing CO (250 ppm). A sampling port was provided to continuously monitor carbon monoxide concentrations within the chamber. Animals had free access to food and water at all times. Mice were exposed to CO or air 1 hour prior to laparotomy, removed for surgical manipulation, and then returned to the chamber for 24 hours. Mice not undergoing surgery were removed from the chamber for a similar length of time and then returned to the chamber for 24 hours.
Mice were anesthetized and killed by exsanguination at the end of the 24-hour chamber treatment with CO or room air. In vitro circular muscle mechanical activity was measured as previously described in Eskandari et al. (Am. J. Physiol. 273:G727-G734 (1997)). Briefly, a segment of mid small bowel was pinned in a Sylgard™ (Midland, Mich.) lined dissecting dish containing pre-oxygenated Krebs-Ringer-bicarbonate buffer (KRB; in mM: 137.4 Na^+, 5.9 K^+, 2.5 Ca^2+, 1.2 Mg^2+, 134 Cl^−, 15.5 HCO3^−, 1.2 H2PO4−, and 11.5 glucose), gassed with 97% O2/3% CO2 to establish a pH of 7.4. The intestine was opened along the mesenteric border, and the mucosa removed by stripping with fine forceps. Full-thickness strips of muscularis (1×6 mm) cut parallel to the circular muscle layer were mounted in standard horizontal mechanical organ chambers and were continuously superfused with preoxygenated KRB maintained at 37° C. One end of each strip was attached by ligature to a fixed post and the other to an isometric force transducer (WPI, Sarasota, Fla.). Strips were allowed to equilibrate for 1 hour, after which they were incrementally stretched to Lo (length at which maximal spontaneous contraction occurs). After a baseline recording period of 30 min, contractility-response curves were generated by exposing the tissues to increasing concentrations of the muscarinic agonist bethanechol (0.3 to 300 μM) for 10 minutes, followed by intervening 10-minute wash periods. Contractile activity was calculated by integrating the area under the trace. The response was normalized to the amount of tissue by converting the weight (1.03 mg/mm^2) and length of the strip to square millimeters of tissue, and reported as g/s/mm^2. Intestinal transit was measured in controls and manipulated animals 24 hours postoperatively by evaluating the intestinal distribution of a non-absorbable fluorescein-labeled dextran (MW 70,000). Animals were lightly sedated with isofluran and fed orally with labeled dextran (100 μl of 25 mg/ml stock solution). Ninety minutes after administration, the animal was sacrificed and the entire bowel from stomach to distal colon was collected. The contents of the stomach, small bowel (divided into 10 segments of equal length), the cecum, and colon (3 segments of equal length) were each minced in 1 ml of saline and mixed vigorously to release the dextran present in each segment. After pelleting the intestinal tissue and chyme, aliquots of the cleared supernatant were read in duplicate on a plate reader (CytoFluor II; excitation wavelength 530 nm and emission 590 nm) for quantification of the fluorescent signal in each bowel segment. […]

Another experiment has as its system IL-1β mRNA. Nature of the experiment: IL-1β mRNA in muscularis after IM (real time RT-PCR). It counts as in vivo, mouse. The note with it: IM + CO vs IM, 6 hr. The procedure: Pro- and anti-inflammatory gene expression was determined by real time RT-PCR. The small intestinal muscularis externa was collected at 4 time points (3, 6, 12, and 24 hr) postoperatively and snap frozen in liquid nitrogen. Total RNA extraction was performed using the guanidium-thiocyanate phenol-chloroform extraction method as described in Eskandari et al. (Id.) RNA pellets were resuspended in RNA-secure resuspension solution (Ambion Inc., Austin, Tex.), followed by removal of potential contaminating DNA by treatment with DNase I (DNA-Free Kit, Ambion Inc., Austin, Tex.). Equal aliquots (5 μg) of total RNA from each sample were quantified by spectrophotometry (wavelength […]). Peak mRNA expression was quantified in duplicate by SYBR Green two-step, real-time RT-PCR. β-actin was used as the endogenous reference. […] Real-time PCR data were plotted as the ΔRn fluorescence signal versus the cycle number. […] Quantification of mRNA expression was normalized to β-actin and calculated relative to control using the comparative CT method.
To exclude PCR amplification of contaminating genomic DNA, RT-negative controls (samples containing RNA which was not reverse transcribed) were included in each PCR reaction. […] PCR amplification efficiency of each target cDNA was measured by determining the colinearity of serial dilutions. […]
(In qPCR the cycle at which signal appears reflects the starting amount.)

“Also recorded” adds a separate entry of the source.

`[C-]#[O+]` [CO, carbon monoxide]: the bethanechol-induced contractile activity entry is on record as “restored contractile activity to control levels” in experiment [1] (IM + CO) and “no effect” in experiment [1] (control animals + CO). Moreover, the peak contractile force in experiment [1] (IM + CO 250 ppm, 100 μM bethanechol) worked out at 3.6±0.7 g/s/mm^2; in experiment [1] (control mice, CO alone, bethanechol), 3.2±0.5 g/s/mm^2. Besides, the “spontaneous contractile activity (rythmicity)” value in experiment [1] (IM mice treated with CO) was “significantly improved; also recorded: restored”. For the same compound, the spontaneous contractility entry in experiment [1] (control mice + CO 24 hr) is listed as “no effect”. Besides, the “peak IL-1β mRNA expression” value in the experiment on IL-1β mRNA is “significantly inhibited”.

For the origin of these results see patent US7687079B2, “Methods of treating ileus” (priority 2002, dated 2010).
